Measured values as given in ChEMBL document CHEMBL1157071, “Phenolic constituents of the aerial parts of Cimicifuga simplex and Cimicifuga japonica” (J Nat Prod, 2010).

Biological target: T1, Hyaluronidase-1 (Homo sapiens, UniProt Q12794)
T1 sequence (Q12794 whole entry): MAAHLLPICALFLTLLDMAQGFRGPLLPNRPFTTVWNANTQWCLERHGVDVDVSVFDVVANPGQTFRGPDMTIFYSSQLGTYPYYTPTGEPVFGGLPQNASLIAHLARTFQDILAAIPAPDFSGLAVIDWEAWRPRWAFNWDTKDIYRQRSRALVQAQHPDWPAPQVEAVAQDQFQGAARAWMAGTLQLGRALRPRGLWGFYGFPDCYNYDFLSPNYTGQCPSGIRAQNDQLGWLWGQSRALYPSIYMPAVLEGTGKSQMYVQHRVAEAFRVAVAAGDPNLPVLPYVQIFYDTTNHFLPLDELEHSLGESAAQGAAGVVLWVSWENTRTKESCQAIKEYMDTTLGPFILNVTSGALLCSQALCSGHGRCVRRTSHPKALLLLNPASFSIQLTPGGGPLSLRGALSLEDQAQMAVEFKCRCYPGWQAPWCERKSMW
Experiment: Inhibition of hyaluronidase

| SMILES | IC50 [µM] |
| --- | --- |
| O=C(O)/C=C/c1ccc(O)c(O)c1 [CAFFEIC ACID] | > 2000 |
| COc1ccc(/C=C/C(=O)O[C@H](C(=O)O)[C@](O)(Cc2ccc(O)cc2)C(=O)O)cc1OC [CIMICIFUGIC ACID L] | 102 |
| COc1ccc(/C=C\C(=O)O[C@H](C(=O)O)[C@](O)(Cc2ccc(O)c(O)c2)C(=O)O)cc1OC [CIMICIFUGIC ACID N] | 120 |

Next, values leading:

| IC50 [µM] | SMILES |
| --- | --- |
| 255 | O=C(/C=C/c1ccc(O)cc1)O[C@H](C(=O)O)[C@](O)(Cc1ccc(O)cc1)C(=O)O [CIMICIFUGIC ACID K] |
| 173 | O=C(/C=C/c1ccc(O)c(O)c1)O[C@H](C(=O)O)[C@](O)(Cc1ccccc1)C(=O)O [CIMICIFUGIC ACID M] |
| > 2000 | COc1cc(/C=C/C(=O)O)ccc1O [FERULATE] |
| 545 | O=C(/C=C/c1ccc(O)c(O)c1)O[C@H](Cc1ccc(O)c(O)c1)C(=O)O [ROSMARINIC ACID] |
